Source: US20240043420A1, “7-AZAINDOLE COMPOUNDS FOR INHIBITION OF BCR-ABL TYROSINE KINASES” (EnLiven Therapeutics, Inc., priority 2020, published 2024)
Like-named read-outs stand apart in the source and are kept apart here.

Tests used:
[1] = system: HL60 cells; experiment: HL60 cell proliferation assay (CellTiter-Glo); format: cell-based; conditions: CellTiter-Glo viability, read-out: Cell Line (IC50, nM) HL60
Protocol: (§1) K562 and HL60 cells, cultured in Iscove's Modified Dulbecco's Media (IMDM) supplemented with 10% FBS, were harvested at 50-80% confluency and plated at 2,000 cells per well (K562) or 1,500 cells per well (HL60) in 384-well tissue culture plates. A subset of wells contained media only (low control, LC). Compounds were serially diluted in DMSO. 40 nL of compound or DMSO only (high control, HC) were added to each well using an Echo 550 liquid handler (Labcyte). The plates were placed in a 37° C. incubator with 5% CO2 for 72 hours. Cell viability was measured using a CellTiter-Glo luminescent cell viability assay (Promega), which allows for relative quantification of metabolically active cells by luminescence-based measurements of intracellular ATP concentrations. Briefly, plates were removed from the incubator and equilibrated for 15 minutes at room temperature prior to the addition of 40 μL of CellTiter-Glo reagent. Plates were then incubated for 30 minutes at room temperature. Luminescence was measured using an EnSpire plate reader (Perkin Elmer). As noted above, luminescence values from wells with DMSO only or media without cells were used as high and low controls (HC and LC), respectively. Normalized percent viability was calculated as follows: percent viability=100×(Lumsample−LumLC)/(LumHC−LumLC).

[2] = biological target: ABL1 (T315I) (Homo sapiens, UniProt P00519, T315I); experiment: Luminescence-based ABL kinase assay (ADP-Glo, 300 μM ATP), T315I mutant; format: biochemical
Protocol: (§2) Kinase activity of ABL1 was measured using the ADP-Glo system (Promega), which measures formation of ADP using a luminescence-based method. Compounds were serially diluted in DMSO. 20 nL of compound or DMSO only (high control, HC) were added to a 384-well plate (OptiPlate-384, PerkinElmer) using an Echo550 liquid handler (Labcyte). 15 μL of kinase solution (10 mM MgCl2, 0.01% Brij-35, 2 mM DTT, 0.05% BSA, 1 mM EGTA, 50 mM HEPES pH 7.5, and 3.325 nM ABL1 [Carna Biosciences]) were added to each well of the 384-well plate containing the compounds. No enzyme control wells were included (low control, LC). The plate was incubated at room temperature for 30 minutes. 5 μL of a second solution containing 10 mM MgCl2, 0.01% Brij-35, 2 mM DTT, 0.05% BSA, 1 mM EGTA, 50 mM HEPES pH 7.5, 6 μM Peptide 2 (Perkin Elmer, Cat No 760346), and 1.2 mM ATP were added to each well to start the kinase reaction. The plate was incubated for 90 minutes at room temperature. 20 μL of ADP-Glo reagent (Promega) were then added to each well and the plate was incubated for 40 minutes at room temperature. 40 μL of kinase detection reagent (Promega) was added to each well and the plate was incubated for an additional 45 minutes at room temperature. During this step, ADP was converted to ATP, a substrate for luciferase, to produce luminescence signal. Luminescence was measured on an Envision plate reader (Perkin Elmer). Luminescence signal positively correlates with kinase activity. The percent kinase activity was calculated as follows: percent kinase activity=100×(Lumsample−LumLC)/(LumHC−LumLC). As noted above, DMSO only and no enzyme wells were used as high and low controls, respectively. IC50 values were calculated using the XLFit software.

[3] = biological target: T1, ABL1 (Homo sapiens, UniProt P00519); experiment: Luminescence-based ABL kinase assay (ADP-Glo, 300 μM ATP); format: biochemical
T1 construct: purchased Carna Biosciences
Protocol: as §2

[4] = system: K562 cells; experiment: K562 cell proliferation assay (CellTiter-Glo); format: cell-based; conditions: CellTiter-Glo viability, read-out: Cell Line (IC50, nM) K562
Protocol: as §1

| SMILES | IC50 ([1]; Homo sapiens, HL-60, 72 h) [nM] | IC50 [2] [nM] | IC50 [3] [nM] | IC50 ([4]; Homo sapiens, K562, 72 h) [nM] | IC50 ([4]; 72 hours) [nM] | IC50 ([1]; 72 hours) [nM] |
| --- | --- | --- | --- | --- | --- | --- |
| COc1nccc(OC2CC2)c1-c1c[nH]c2nc(NC(=O)C3CC3OCCN(C)C)ccc12 (single isomer, unassigned) [Example S220, Enantiomer 1, N-(3-(4-cyclopropoxy-2-methoxypyridin-3-yl)-1H-pyrrolo[2,3-b]pyridin-6-yl)-2-(2-(dimethylamino)ethoxy)cyclopropane-1-carboxamide] | > 10000 |  |  |  | 24.9 |  |
| COc1nccc(OC2CC2)c1-c1c[nH]c2nc(NC(=O)C3CC3OCCN(C)C)ccc12 (single isomer, unassigned) [Example S220, Enantiomer 2, N-(3-(4-cyclopropoxy-2-methoxypyridin-3-yl)-1H-pyrrolo[2,3-b]pyridin-6-yl)-2-(2-(dimethylamino)ethoxy)cyclopropane-1-carboxamide] |  |  |  |  | 57.3 | > 10000 |
| COc1nccc(OC2CC2)c1-c1c[nH]c2nc(NC(=O)C3CC3OCCN3CCC3)ccc12 (single isomer, unassigned) [Example S221, Enantiomer 1, 2-(2-(azetidin-1-yl)ethoxy)-N-(3-(4-cyclopropoxy-2-methoxypyridin-3-yl)-1H-pyrrolo[2,3-b]pyridin-6-yl)cyclopropane-1-carboxamide] | 6590 |  |  |  | 11.1 |  |
| COc1nccc(OC2CC2)c1-c1c[nH]c2nc(NC(=O)C3CC3OCCN3CCC3)ccc12 (single isomer, unassigned) [Example S221, Enantiomer 2, 2-(2-(azetidin-1-yl)ethoxy)-N-(3-(4-cyclopropoxy-2-methoxypyridin-3-yl)-1H-pyrrolo[2,3-b]pyridin-6-yl)cyclopropane-1-carboxamide] |  |  |  |  | 39.7 | 8660 |
| O=C(Nc1ccc2c(-c3ccccc3F)c[nH]c2n1)C1CC1 [Compound 5, N-[3-(2-fluorophenyl)-1H-pyrrolo[2,3-b]pyridin-6-yl]cyclopropanecarboxamide] | > 10000 | 32.9 | 119 | 713 |  |  |
| COc1cccc(OC)c1-c1c[nH]c2nc(NC(=O)C3CC3)ccc12 [Compound 45, N-[3-(2,6-dimethoxyphenyl)-1H-pyrrolo[2,3-b]pyridin-6-yl]cyclopropanecarboxamide] | > 10000 |  |  | 52.7 |  |  |
| COc1nc2nccn2cc1-c1c[nH]c2nc(NC(=O)[C@@H]3C[C@@H]3F)ccc12 [Compound 128, (1S,2S)-2-fluoro-N-(3-(7-methoxyimidazo[1,2-a]pyrimidin-6-yl)-1H-pyrrolo[2,3-b]pyridin-6-yl)cyclopropane-1-carboxamide] |  | 97.1 | 24.9 |  |  |  |
| COc1cccc(OC)c1-c1c[nH]c2nc(NC(=O)NCC3CNC3)ccc12 [Compound 129, 1-(azetidin-3-ylmethyl)-3-(3-(2,6-dimethoxyphenyl)-1H-pyrrolo[2,3-b]pyridin-6-yl)urea] |  | 35.8 | 32.9 |  |  |  |
| COc1c(-c2c[nH]c3nc(NC(=O)[C@@H]4C[C@@H]4F)ccc23)ccc2ncnn12 [Compound 134, (1S,2S)-2-fluoro-N-(3-[5-methoxy-[1,2,4]triazolo[1,5-a]pyridin-6-yl]-1H-pyrrolo[2,3-b]pyridin-6-yl)cyclopropane-1-carboxamide] |  | 227 | 64.8 |  |  |  |
| COc1cc2scnc2cc1-c1c[nH]c2nc(NC(=O)NCCN3CCNCC3)ccc12 [Compound 140, 3-[3-(6-methoxy-1,3-benzothiazol-5-yl)-1H-pyrrolo[2,3-b]pyridin-6-yl]-1-[2-(piperazin-1-yl)ethyl]urea] |  | 82.5 | 30.6 |  |  |  |
| COc1nc2[nH]ncc2cc1-c1c[nH]c2nc(NC(=O)[C@@H]3C[C@@H]3F)ccc12 [Compound 144, (1S,2S)-2-fluoro-N-(3-[6-methoxy-1H-pyrazolo[3,4-b]pyridin-5-yl]-1H-pyrrolo[2,3-b]pyridin-6-yl)cyclopropane-1-carboxamide] | > 10000 |  |  | 32 |  |  |

Next, values leading:

| IC50 ([1]; Homo sapiens, HL-60, 72 h) [nM] | IC50 [2] [nM] | IC50 [3] [nM] | IC50 ([4]; Homo sapiens, K562, 72 h) [nM] | IC50 ([4]; 72 hours) [nM] | IC50 ([1]; 72 hours) [nM] | SMILES |
| --- | --- | --- | --- | --- | --- | --- |
| > 10000 | 26.8 | 106 | 654 |  |  | COc1ccccc1-c1c[nH]c2nc(NC(=O)[C@@H]3C[C@@H]3CN3CCN(C)CC3)ccc12 (racemic) [Compound 41, cis-N-[3-(2-methoxyphenyl)-1H-pyrrolo[2,3-b]pyridin-6-yl]-2-[(4-methylpiperazin-1-yl)methyl]cyclopropane-1-carboxamide] |
| > 10000 | 19.9 | 109 | 489 |  |  | COc1ccccc1-c1c[nH]c2nc(NC(=O)[C@@H]3C[C@@H]3CCO)ccc12 (relative stereo) [Compound 105, cis-2-(2-hydroxyethyl)-N-(3-(2-methoxyphenyl)-1H-pyrrolo[2,3-b]pyridin-6-yl)cyclopropanecarboxamide] |
| > 10000 | 26.1 | 78.1 | 275 |  |  | COc1ccccc1-c1c[nH]c2nc(NC(=O)[C@H]3C[C@H]3C#N)ccc12 (relative stereo) [Compound 106, cis-2-cyano-N-[3-(2-methoxyphenyl)-1H-pyrrolo[2,3-b]pyridin-6-yl]cyclopropane-1-carboxamide] |
| > 10000 | 17.8 | 78.6 | 419 |  |  | COc1ccccc1-c1c[nH]c2nc(NC(=O)[C@H]3C[C@@H]3CO)ccc12 (relative stereo) [Compound 108, trans-2-(hydroxymethyl)-N-(3-(2-methoxyphenyl)-1H-pyrrolo[2,3-b]pyridin-6-yl)cyclopropane-1-carboxamide] |
|  | 15 | 10.6 |  | 21.5 |  | COc1cccc(OC)c1-c1c[nH]c2nc(NC(=O)C3CC3CCN(C)C)ccc12 (single isomer, unassigned) [Example S205, Enantiomer 1, N-(3-(2,6-dimethoxyphenyl)-1H-pyrrolo[2,3-b]pyridin-6-yl)-2-(2-(dimethylamino)ethyl)cyclopropane-1-carboxamide] |
|  | 20.9 | 15 |  | 55.3 |  | COc1cccc(OC)c1-c1c[nH]c2nc(NC(=O)C3CC3CCN(C)C)ccc12 (single isomer, unassigned) [Example S205, Enantiomer 2, N-(3-(2,6-dimethoxyphenyl)-1H-pyrrolo[2,3-b]pyridin-6-yl)-2-(2-(dimethylamino)ethyl)cyclopropane-1-carboxamide] |
| > 10000 | 11.3 | 37.9 | 101 |  |  | COc1ccccc1-c1c[nH]c2nc(NC(=O)C3CC3)ccc12 [Compound 1, N-(3-(2-methoxyphenyl)-1H-pyrrolo[2,3-b]pyridin-6-yl)cyclopropanecarboxamide] |
| > 10000 | 9.96 | 22.2 | 176 |  |  | COc1ccccc1-c1c[nH]c2nc(NC(=O)[C@H]3C[C@H]3F)ccc12 [Compound 2, (1R,2R)-2-fluoro-N-(3-(2-methoxyphenyl)-1H-pyrrolo[2,3-b]pyridin-6-yl)cyclopropane-1-carboxamide] |
| > 10000 | 32.3 | 113 | 223 |  |  | Cc1ccccc1-c1c[nH]c2nc(NC(=O)C3CC3)ccc12 [Compound 4, N-[3-(2-methylphenyl)-1H-pyrrolo[2,3-b]pyridin-6-yl]cyclopropanecarboxamide] |
|  | 31.2 | 45.5 |  |  |  | COc1nc2[nH]ccc2cc1-c1c[nH]c2nc(NC(=O)[C@H]3C[C@@H]3F)ccc12 [Compound 141, (1R,2S)-2-fluoro-N-(6′-methoxy-1H,1′H-[3,5′-bipyrrolo[2,3-b]pyridin]-6-yl)cyclopropane-1-carboxamide] |
